The record followed here is PubChem BioAssay (NCI).

What all share (experiment): inhibition of tumour cell growth, NCI panel, 48 h
Assay [1] has as its system OVCAR-5 ovarian.
The test system of assay [2] is SK-OV-3 ovarian.
Assay [3] relates to T-47D breast.
In assay [4] the test system is MCF7 breast.
For assay [5], the system named is SW-620 colon.
Assay [6] has as its system MDA-MB-231 breast.
The subject of assay [7] is IGROV1 ovarian.
The test system of assay [8] is CCRF-CEM leukemia.

The structures appear in SMILES notation.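 Cultured in 96-well plates, cells were exposed to test compound for 48 hours across five concentrations. At the GI50, growth is halved. TGI denotes the concentration required for complete inhibition of growth.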

With `O=C(O)CP(=O)(c1ccccc1)c1ccccc1.O=C(O)CP(=O)(c1ccccc1)c1ccccc1.[Cd]`, the GI50 in assay [1] is 16 µM; in assay [2], 20.2 µM; in assay [3] it was 24 µM; in assay [4] it was 27.2 µM; in assay [5], 19.6 µM; in assay [6], 15.7 µM. For the same compound, in assay [7], the GI50 was 16.6 µM. In addition, the TGI in assay [1] was 30.6 µM; in assay [2] it was 44.5 µM; in assay [3], 73.3 µM; in assay [4], greater than 100 µM; in assay [5], 42.6 µM; in assay [6], 32.2 µM. In addition, the TGI in assay [7] was 37.1 µM.
In the case of `COc1ccc2cc(C(=O)/C=C/c3ccco3)ccc2c1`, the GI50 in assay [2] was 53.1 µM; in assay [3], greater than 100 µM; in assay [5], 35 µM; in assay [6], 29.2 µM; in assay [7], 30.3 µM. Further, the TGI in assay [2], in assay [3], in assay [5], in assay [6] and in assay [7] was greater than 100 µM each time.
Take `Cc1cccc2c1NC(=O)C2(c1ccc(O)cc1)c1ccc(O)cc1`: the GI50 is 12.8 µM in assay [1]; 19.2 µM in assay [2]; 22.3 µM in assay [8]; less than 0.01 µM in assay [3]; 0.0219 µM in assay [4]; 20.8 µM in assay [5]. Moreover, the figures for the GI50 in assay [6] and in assay [7] were 13.3 µM and 0.0634 µM, respectively. Also, the TGI in assay [1] is 67.1 µM; in assay [2], 42 µM; in assay [8], greater than 100 µM; in assay [4] it was greater than 59.6 µM; in assay [5] it was 69.8 µM; in assay [6], 33.3 µM. The compound also registered a TGI in assay [7] of 47.6 µM.
As to `CC(C(=O)N1C(=O)N(C(=O)[C@H](C)C(O)c2ccccc2)[C@H](c2ccccc2)[C@H]1c1ccccc1)[C@@H](O)c1ccccc1` (stereo partly drawn), the TGI in assay [1] was 78.3 µM; in assay [2], greater than 100 µM; in assay [3], greater than 100 µM; in assay [4], greater than 100 µM; in assay [5] it was greater than 100 µM; in assay [6], 48.9 µM. The TGI in assay [7] is 64.9 µM.
For the compound `COc1cc(C2C(C(=O)OCc3ccccc3)=C(C)NC(C)=C2C(=O)OCc2ccccc2)cc(OC)c1OC`, the GI50 is 4.78 µM in assay [2], 3.67 µM in assay [3], 2.66 µM in assay [4] and 2.16 µM in assay [6]. In addition, the TGI in assay [2], in assay [3], in assay [4] and in assay [6] was greater than 100 µM throughout.
Take `COc1ccc(N2C(=O)C3c4[nH]c5cc(Cl)ccc5c4C4CCC(C(C)(C)C)CC4C3C2=O)cc1` (stereo not drawn): the TGI in assay [2], in assay [8], in assay [3], in assay [4], in assay [5] and in assay [6] was greater than 100 µM in each case. Further, in assay [7], the TGI is greater than 100 µM.
In the case of `Cc1ccc(C(CC(=O)c2ccccc2)C(C(=O)c2ccccc2)C(c2ccc(C)cc2)C2C(=O)NC(=S)NC2=O)cc1` (stereo not drawn), the GI50 is 31 µM in assay [1]; greater than 50 µM in assay [2]; 15.8 µM in assay [8]; 5.78 µM in assay [3]; 10.6 µM in assay [4]; 19.4 µM in assay [5]. Further, the figures for the GI50 in assay [6] and in assay [7] were 9.5 µM and 19.2 µM, respectively. Besides, the TGI in assay [1], in assay [2], in assay [8], in assay [3], in assay [4] and in assay [5] was greater than 50 µM each time. For the same compound, the TGI in assay [6] and in assay [7] was greater than 50 µM in each case.
Regarding `CCCN(CCC)c1ccc(/C=N/NC(=O)c2cccnc2)cc1`, the GI50 in assay [1] was 38 µM; in assay [2], 30.6 µM; in assay [8], 37.1 µM; in assay [3], 28.1 µM; in assay [4], 20.2 µM; in assay [5] it was 18.1 µM. Further, in assay [7], the GI50 was 46.8 µM. In addition, the TGI in assay [1], in assay [2], in assay [8], in assay [3], in assay [4] and in assay [5] was greater than 100 µM each time. This compound had a TGI in assay [7] greater than 100 µM.
In the case of `C=CCCC(O)c1ccc(CCCCCCCCCCC)o1` (stereo not drawn), the GI50 in assay [1] is 18.3 µM; in assay [2], 16.9 µM; in assay [8], 19.3 µM; in assay [3] it was 13.8 µM; in assay [4] it was 20.3 µM; in assay [5], 17 µM. Besides, the figures for the GI50 in assay [6] and in assay [7] were 12.6 µM and 16.5 µM, respectively. Besides, the TGI was 35.9 µM in assay [1]; 33.8 µM in assay [2]; 40 µM in assay [8]; 30.5 µM in assay [3]; 50.9 µM in assay [4]; 32.2 µM in assay [5]. In addition, the TGI came out at 26.2 µM in assay [6] and 32 µM in assay [7].
Take `Cc1[nH]c2ccccc2c1C1=CC(=O)C=CC1=O`: the GI50 was 17.7 µM in assay [1]; 14.5 µM in assay [2]; 2.65 µM in assay [3]; 9.9 µM in assay [4]; 4.55 µM in assay [5]; 12.9 µM in assay [6]. The GI50 in assay [7] is 12 µM. The TGI in assay [1] amounted to 32.8 µM; in assay [2], 33.5 µM; in assay [3], 5.75 µM; in assay [4] it was 28.8 µM; in assay [5], 23 µM; in assay [6], 29.2 µM. Moreover, the TGI in assay [7] worked out at 27.2 µM.
Turning to `Cc1cc2c(=O)c3ccccc3oc2c(C#N)c1C`, the TGI in assay [1], in assay [2], in assay [8], in assay [3], in assay [4] and in assay [5] was greater than 100 µM in each case. The TGI in assay [7] was greater than 100 µM.
As to `O=C(NCCCCCCNC(=O)NC1OCC(O)C(O)C1O)NC1OCC(O)C(O)C1O` (stereo not drawn), the TGI in assay [1], in assay [2], in assay [8], in assay [5] and in assay [7] was greater than 100 µM throughout.
On to `COc1ccc(OC)c(-c2cc(C(=O)O)c3cc4ccccc4cc3n2)c1`, for which the TGI in assay [1], in assay [2], in assay [3], in assay [4], in assay [5] and in assay [6] was greater than 100 µM throughout. The compound also gave a TGI in assay [7] greater than 100 µM.
Regarding `Cc1ccc(C)c(N2C(=O)C(=O)c3c(C)ccc(C)c32)c1`, the TGI in assay [1] was greater than 100 µM; in assay [2] it was greater than 100 µM; in assay [3] it was 68.3 µM; in assay [4] it was 59 µM; in assay [5], greater than 100 µM; in assay [6], 49.8 µM. The TGI in assay [7] came to 43.4 µM.
For `Cc1nn(-c2ccccc2)c(C)c1/C=N/N1CCN(Cc2ccccc2)CC1`, the GI50 in assay [1] was greater than 100 µM; in assay [4], 31 µM; in assay [5], greater than 100 µM; in assay [6], 22.6 µM. The TGI in assay [1] was greater than 100 µM; in assay [4], greater than 100 µM; in assay [5], greater than 100 µM; in assay [6] it was 95.2 µM.
With `COc1ccc(C(=O)C(CC2C(=O)CC(C)(C)C(C(=O)C(=O)Nc3c(C)cccc3C)C2=O)c2ccc(OC)cc2)cc1` (stereo not drawn), the TGI in assay [1], in assay [2], in assay [8], in assay [4], in assay [5] and in assay [6] was greater than 100 µM each time. This compound came in with a TGI in assay [7] greater than 100 µM.
As for `N=C(N)c1ccc(-c2ccc(-c3ccc(Cl)c(Cl)c3)o2)nc1`, the GI50 in assay [1] is 1.57 µM; in assay [2], 1.53 µM; in assay [6], 1.64 µM; in assay [7] it was 1.86 µM. Further, the TGI in assay [1] was found to be 3.01 µM; in assay [2], 3.23 µM; in assay [6], 3.38 µM; in assay [7] it was 3.59 µM.
On to `[O]=[W](=[O])([OH])[OH]`, for which the GI50 in assay [1], in assay [8], in assay [3], in assay [4], in assay [5] and in assay [6] was greater than 100 µM throughout. Also, the GI50 in assay [7] is greater than 100 µM. Moreover, the TGI in assay [1], in assay [8], in assay [3], in assay [4], in assay [5] and in assay [6] was greater than 100 µM in each case. The same compound gave a TGI in assay [7] greater than 100 µM.
On to `CCNC(=O)c1ccc2c(c1)nc(-c1ccc(Cl)cc1)n2-c1cc(C(C)(C)C)[nH]n1`, for which the GI50 in assay [1] was 5.91 µM; in assay [2], 3.6 µM; in assay [8], 2.94 µM; in assay [3] it was 3.99 µM; in assay [4], 2.68 µM; in assay [6], 5.56 µM. For the same compound, in assay [7], the GI50 is 5.22 µM. Besides, the TGI was 40.1 µM in assay [1]; 17.3 µM in assay [2]; 40.7 µM in assay [8]; greater than 100 µM in assay [3]; 10.5 µM in assay [4]; 28.5 µM in assay [6]. Besides, in assay [7], the TGI came out at 64.8 µM.
